According to US20260207620A1, “SOLID DISPERSION OF COMPOUND HAVING P2X4 RECEPTOR ANTAGONISTIC ACTION” (NIPPON CHEMIPHAR CO., LTD., priority 2023, published 2026):

Legend:
solubility in water = assay type: physicochemical
[1] = PK test of compound F2 and its solid dispersion, oral, fasted male Wistar rats; assay type: in vivo; details: Wistar (Crlj:WI), rat, compound F2 in plasma, 10 mg/kg (as compound F2) p.o., n=3
Procedure: Fasted male rats (8 weeks old, Wistar (Crlj:WI), Charles River Laboratories Japan, Inc.) were orally administered a crystalline form of the compound F2 suspended in a 1% methylcellulose aqueous solution or a solid dispersion comprising the compound F2 suspended in water for injection. The dosage of the compound F2 in each group was 10 mg/kg (n=3 in each group). Blood samples were collected in a time-dependent manner at 0.5, 1, 2, 4, 6, 8, and 24 hours after oral administration. The concentration of the compound F2 in the obtained plasma was measured by LC-MS/MS (MS/MS: API4000, SCIEX, LC: LC-20AD series, Shimadzu Corporation). Tmax, Cmax, and AUClast were calculated from the plasma concentration transition (Table 5).

[2] = PK test, solid dispersions E and B of compound F48, single oral dose, fasted male Wistar rats; assay type: in vivo; details: Wistar (Crlj:WI), rat, compound F48 in plasma, 10 mg/kg (as compound F48) p.o. once, n=3
Procedure: Solid dispersions E and B were prepared using a rotary evaporator according to the following method. The compound F48 was dissolved in THF to result in 2.5 mg/mL. By the same procedure as above, each polymer was prepared to result in 25 mg/mL. Next, the compound F48 solution was added to the polymer solution with stirring such that the weight ratio between the compound F48 and the carrier was 1:25. The resulting mixture was transferred to a recovery flask, and the organic solvent was then removed using a rotary evaporator (Yamato Scientific Co., Ltd., distillation apparatus). The recovery flask was transferred to a desiccator and dried under reduced pressure using a vacuum pump for approximately 16 hours, thereby obtaining solid dispersions E and B. […]
Blood samples were collected in a time-dependent manner before oral administration and at 0.5, 1, 3, 5, 8, and 24 hours after oral administration. The concentration of the compound F48 in the obtained plasma was measured by HPLC (Hitachi High-Technologies Corporation). The time to reach the maximum plasma concentration (Tmax), the maximum plasma concentration (Cmax), and the area under the plasma concentration-time curve (AUClast) were calculated from the plasma concentration transition (Table 2).

For `O=C1CC(=O)N(c2ccc(NC(=O)c3ccccc3C(F)(F)F)cc2)c2ccc3ccccc3c2N1` [Compound F2, 5-[4-[2-(trifluoromethyl)benzoyl]aminophenyl]-1H-naphtho [1,2-b][1,4]diazepine-2,4 (3H,5H)-dione], which solubility in water (solubility in water) is on record?
The solubility in water was “poorly soluble in water”.

And the AUC(0-t) [1]?
The AUC(0-t) was 5710 ± 520 ng·h/mL.

What about the Cmax [1] of the same compound?
Its Cmax is 386 ± 56 ng/mL.

And the Tmax [1]?
The Tmax was 4 h.

For `O=C1CC(=O)N(c2ccc(NC(=O)c3ccccc3I)cc2)c2ccc3ccccc3c2N1` [Control, 5-[4-(2-iodobenzoylamino)phenyl]-1H-naphtho [1,2-b][1,4]diazepine-2,4 (3H,5H)-dione], which Cmax [2] is on record?
Its Cmax is under 25 ng/mL.

For `O=C1CC(=O)N(c2ccc(NC(=O)c3ccccc3I)cc2)c2ccc3ccccc3c2N1` [Compound F48, 5-[4-(2-iodobenzoylamino)phenyl]-1H-naphtho [1,2-b][1,4]diazepine-2,4 (3H,5H)-dione], which solubility in water (solubility in water) is on record?
Its solubility in water is “poorly soluble in water”.

For `CCc1ccccc1C(=O)Nc1ccc(N2C(=O)CC(=O)Nc3c2ccc2ccccc32)cc1` [Compound F57, 5-[4-[(2-ethylbenzoyl)amino]phenyl]-1H-naphtho [1,2-b][1,4]diazepine-2,4 (3H,5H)-dione], which solubility in water (solubility in water) is on record?
The solubility in water was “poorly soluble in water”.
